Data taken from publication PMC11637191, “The pH-dependence of efflux ratios determined with bidirectional transport assays across cellular monolayers” (International Journal of Pharmaceutics: X, 2024).
“And” between values parts separate entries of the source, which are not always exact repeats. Identical values can stand only once. Like-named read-outs stand apart in the source and are kept apart here.

What was measured:
[1] = system: Caco-2 cells; assay: Model fits of pH-gradient Caco-2 data of Neuhoff et al. (2003)
Description: Error bars represent standard deviation.
Fit Parameters A: Neutral-Neutral B: Ionic-Ionic C: Neutral-Ionic […]
X Measurement of paracellular transport […]
assess its relative contribution to overall flux, it is necessary to quantify paracellular transport in some way. An approximation of paracellular transport can be mathematically calculated as desc ribed in […]
and cell type can influence and complicate the predictions, leading to uncertainties. H owever, it can also be experimentally measured provided that it can be assured that the P app would be dominated by the contribution of P para . […]
compounds. In order to ensure paracellular dominance, 2 µM elacridar was used to inhibit potential P-gp facilitated efflux, and the transport buffer was set to a pH that would severely restrict the neutral

[2] = system: MDCK-II-MDR1 cells
[3] = in vitro; details: dog
[4] = system: P-gp (MDR1); assay: in vitro; details: dog
[5] = system: MDCK-MDR1 cells; details: cited from earlier work
[6] = Calculation of neutral fraction (fn); details: neutral fraction at pH 7.4
[7] = system: MDCK-MDR1 cells; assay: Comparison of Papp,B-A with and without inhibitor in MDCK-MDR1 cells (own and literature data); details: pH 7.4 iso-method
[8] = system: P-gp (MDR1); assay: as above; details: dog, MDCK-MDR1, pH 7.4, with P-gp inhibitor (elacridar 2 µM in this study's P0 assays), Papp, inhibitor, This study; with inhibitor; pH 7.4 iso-method
[9] = system: MDCK-II-MDR1 cells; details: intrinsic membrane permeability, calculated from Papp, A⟶B with elacridar
Description: Briefly, cells (passage 20–40) were seeded onto 12-well PET inserts (CellQART, Northeim, Germany; pore size: 0.4 μm; filter thickness: 11.5 μm, 100×10^6 pores/cm^2) at a density of 1.5×10^5 cells/insert. […] One day before the experiments, the cell medium was refreshed. For P0 determination, inserts were pre-incubated with the P-gp inhibitor elacridar (2 μM) for 30 min in HBSS pH 7.4. The transport rates in both directions of the test compounds were determined in duplicate or triplicate for 4–5 different pH values between pH 5 and pH 9. The transport buffer was HBSS buffered with 10 mM MES for pH 5 and 6, 25 mM HEPES for pH 7, 7.4 and 8, and 10 mM TAPS for pH 9. Stock solutions were prepared in the transport buffer and pre-warmed to 37 °C. Additional stock solutions with 2 μM elacridar were prepared at suitable pH values to measure P0 values in tandem. The pH of all buffer and stock solutions, as well as the pH of all samples after experiment completion, was controlled with a rapid pH automated pH meter (Hudson Robotics, Inc., Springfield, NJ, USA). Inserts were used in 12-well plates (TPP Techno Plastic Products AG, Trasadingen, Switzerland). […] Timestep length was determined individually for each compound and direction measured to ensure sink conditions. […]
to ensure that measured transport rates would not be affected by active efflux .

[10] = determined 25 °C; etoposide acidic, acebutolol basic; ref Avdeef, 2012; cited from earlier work
[11] = system: MDCK-MDR1 cells; details: dog, MDCK-MDR1, pH 7.4
[12] = Neutral-Neutral assumption, gradient pH method, basolateral pH 7.4, fit of Neuhoff et al. 2003 data
[13] = with inhibitor, pH 7.4 iso-method, ref Troutman and Thakker (2003)
[14] = with inhibitor, pH 7.4 iso-method, ref Wang et al. (2005)
[15] = without inhibitor, pH 7.4 iso-method, ref Troutman and Thakker (2003)
[16] = without inhibitor, pH 7.4 iso-method, ref Wang et al. (2005)

With `C[C@H]1O[C@@H](O[C@H]2[C@@H](O)C[C@H](O[C@H]3[C@@H](O)C[C@H](O[C@H]4CC[C@@]5(C)[C@H](CC[C@@H]6[C@@H]5C[C@@H](O)[C@]5(C)[C@@H](C7=CC(=O)OC7)CC[C@]65O)C4)O[C@@H]3C)O[C@@H]2C)C[C@H](O)[C@@H]1O` [Digoxin] the “Pb,app active (fitted)” value [1, 12] was 51.6 ×10⁻⁶ cm/s, the “Ppara (fitted)” value [1, 12] was 5.22 ×10⁻⁶ cm/s and the P0 ([1]; human, Caco-2) was 2.69-06 cm/s. The “Ppgp,app active (fitted)” value ([1]; human, Caco-2, pH 7.4) was 63.9 ×10⁻⁶ cm/s, the “Pb active in Caco-2 fit compared with MDCK results (iso-pH method)” value ([1]; neutral-neutral fit) was “one order of magnitude higher” and the “logPapp, A⟶B” value ([2]; pH 5, iso-pH method) was -6.27 P in cm/s. For the same molecule, the “logPapp, B⟶A” value ([2]; pH 5, iso-pH method) was -5.21 P in cm/s, the “logPapp, A⟶B” value ([2]; pH 6, iso-pH method) was -6.29 P in cm/s and the “logPapp, B⟶A” value ([2]; pH 6, iso-pH method) was -4.79 P in cm/s. For the same molecule, the “logPapp, A⟶B” value ([2]; pH 7.4, iso-pH method) was -6.23 P in cm/s, the “logPapp, B⟶A” value ([2]; pH 7.4, iso-pH method) was -4.75 P in cm/s and the “logPapp, A⟶B” value ([2]; pH 8, iso-pH method) was -6.14 P in cm/s. The “logPapp, B⟶A” value ([2]; pH 8, iso-pH method) was -4.79 P in cm/s, the “logPapp, A⟶B” value ([2]; pH 9, iso-pH method) was -5.72 P in cm/s and the “logPapp, B⟶A” value ([2]; pH 9, iso-pH method) was -5.12 P in cm/s. It also gave a recovery ([3]; MDCK-MDR1, pH 5) of 71 to 116%, a recovery ([3]; MDCK-MDR1, pH 6) of 74 to 88% and a recovery ([3]; MDCK-MDR1, pH 7.4) of 73 to 83%. The recovery ([3]; MDCK-MDR1, pH 8) was 73 to 76%, the recovery ([3]; MDCK-MDR1, pH 9) was 75 to 82% and the Papp ([4]; MDCK-MDR1, pH 5) was 0.53 ± 0.15 ×10⁻⁶ cm/s. The Papp B→A ([4]; MDCK-MDR1, pH 5) was 6.12 ± 1.9 ×10⁻⁶ cm/s, the Papp ([4]; MDCK-MDR1, pH 6) was 0.51 ± 0.12 ×10⁻⁶ cm/s and the Papp B→A ([4]; MDCK-MDR1, pH 6) was 16.3 ± 0.8 ×10⁻⁶ cm/s. For the same molecule, the Papp ([4]; MDCK-MDR1, pH 7.4) was 0.59 ± 0.11 ×10⁻⁶ cm/s, the Papp B→A ([4]; MDCK-MDR1, pH 7.4) was 17.8 ± 2.8 ×10⁻⁶ cm/s and the Papp ([4]; MDCK-MDR1, pH 8) was 0.72 ± 0.13 ×10⁻⁶ cm/s. The Papp B→A ([4]; MDCK-MDR1, pH 8) was 16.3 ± 2 ×10⁻⁶ cm/s, the Papp ([4]; MDCK-MDR1, pH 9) was 1.9 ± 0.32 ×10⁻⁶ cm/s and the Papp B→A ([4]; MDCK-MDR1, pH 9) was 7.63 ± 1.73 ×10⁻⁶ cm/s. For the same molecule, the “Papp, inhibitor” value ([5]; with inhibitor, pH 7.4 iso-method, ref Chang et al. (2006)) was 2.04e-06 cm/s, the “Papp, inhibitor” value ([5]; with inhibitor, pH 7.4 iso-method, ref Taub et al. (2005)) was 1.39e-06 cm/s and the “Papp, inhibitor” value [5, 13] was 7.5e-06 cm/s. The “Papp, inhibitor” value [5, 14] was 1e-06 cm/s, the “Papp, B⟶A” value ([5]; without inhibitor, pH 7.4 iso-method, ref Chang et al. (2006)) was 1.52e-05 cm/s and the “Papp, B⟶A” value ([5]; without inhibitor, pH 7.4 iso-method, ref Taub et al. (2005)) was 8.15e-06 cm/s. For the same molecule, the “Papp, B⟶A” value [5, 15] was 3.57e-05 cm/s, the “Papp, B⟶A” value [5, 16] was 9.75e-06 cm/s and the fn [6] was 100%. For the same molecule, the Factor difference ([7]; This study, Papp,B⟶A vs Papp with inhibitor) was 7, the Factor difference ([7]; calculated from literature Papp,B⟶A and Papp with inhibitor) was 10 and 6 and 5 and 7 and the Papp [8] was 2.53 ×10⁻⁶ cm/s.
In the case of `COc1cc([C@@H]2c3cc4c(cc3[C@@H](O[C@@H]3O[C@@H]5CO[C@@H](C)O[C@H]5[C@H](O)[C@H]3O)[C@H]3COC(=O)[C@H]23)OCO4)cc(OC)c1O` [Etoposide], the “logPapp, A⟶B” value ([2]; pH 6, iso-pH method) is reported as -6.93 P in cm/s, the “logPapp, B⟶A” value ([2]; pH 6, iso-pH method) is reported as -5.50 P in cm/s and the “logPapp, A⟶B” value ([2]; pH 7.4, iso-pH method) is reported as -6.97 P in cm/s. For the same molecule, the “logPapp, B⟶A” value ([2]; pH 7.4, iso-pH method) was -5.39 P in cm/s, the “logPapp, A⟶B” value ([2]; pH 8, iso-pH method) was -6.86 P in cm/s and the “logPapp, B⟶A” value ([2]; pH 8, iso-pH method) was -5.55 P in cm/s. For the same molecule, the “logPapp, A⟶B” value ([2]; pH 9, iso-pH method) was -6.71 P in cm/s, the “logPapp, B⟶A” value ([2]; pH 9, iso-pH method) was -6.37 P in cm/s and the LogP0 [9] was -6.3 P in cm/s. The pKa [10] was 8.53, the recovery ([3]; MDCK-MDR1, pH 6) was 92 to 97% and the recovery ([3]; MDCK-MDR1, pH 7.4) was 98 to 108%. It also gave a recovery ([3]; MDCK-MDR1, pH 8) of 83 to 98%, a recovery ([3]; MDCK-MDR1, pH 9) of 60 to 71% and a Papp ([4]; MDCK-MDR1, pH 6) of 0.12 ± 0.02 ×10⁻⁶ cm/s. The Papp B→A ([4]; MDCK-MDR1, pH 6) was 3.16 ± 0.19 ×10⁻⁶ cm/s, the efflux ratio ([4]; MDCK-MDR1, pH 6) was 26.8 and the Papp ([4]; MDCK-MDR1, pH 7.4) was 0.11 ± 0.02 ×10⁻⁶ cm/s. The Papp B→A ([4]; MDCK-MDR1, pH 7.4) was 4.05 ± 1.18 ×10⁻⁶ cm/s, the efflux ratio ([4]; MDCK-MDR1, pH 7.4) was 37.6 and the Papp ([4]; MDCK-MDR1, pH 8) was 0.14 ± 0.04 ×10⁻⁶ cm/s. The Papp B→A ([4]; MDCK-MDR1, pH 8) was 2.8 ± 0.08 ×10⁻⁶ cm/s, the efflux ratio ([4]; MDCK-MDR1, pH 8) was 20.2 and the Papp ([4]; MDCK-MDR1, pH 9) was 0.19 ± 0.08 ×10⁻⁶ cm/s. For the same molecule, the Papp B→A ([4]; MDCK-MDR1, pH 9) was 0.43 ± 0.03 ×10⁻⁶ cm/s, the efflux ratio ([4]; MDCK-MDR1, pH 9) was 2.2 and the “Papp, inhibitor” value [5, 13] was 6.6e-07 cm/s. The “Papp, inhibitor” value [5, 14] was 3e-07 cm/s, the “Papp, B⟶A” value [5, 15] was 1.04e-05 cm/s and the “Papp, B⟶A” value [5, 16] was 1.8e-06 cm/s. It also gave a fn [6] of 84%.
For `CC[C@@H](CO)NC(=O)[C@@H]1C=C2c3cccc4c3c(cn4C)C[C@H]2N(C)C1` [Methysergide], the Factor difference [11] is listed as 2, the “Papp, B⟶A” value ([5]; MDCK-MDR1, pH 7.4) is listed as 75.3 and the “Papp, inhibitor” value ([5]; MDCK-MDR1, pH 7.4) is listed as 39.4.
